Laboratory results from article PMC12627933, “A First-In-Human Study of the SUMOylation Inhibitor Subasumstat in Patients with Advanced/Metastatic Solid Tumors or Relapsed/Refractory Hematologic Malignancies” (Cancer Research Communications, 2025).

Test: Safety: treatment-emergent adverse events (NCI CTCAE v5.0; CRS per ASTCT), phase I/II study NCT03648372
Format: in vivo
Conditions: Phase I (n = 84)
Protocol: This study comprised two parts: a phase I dose escalation and a phase II dose expansion (Fig. 1). In the dose-escalation phase, patients were enrolled to receive subasumstat intravenously as a 1-hour (±10 minutes) infusion on days 1, 4, 8, and 11 of a 21-day cycle (biweekly schedule). […] Dose escalation was based on cohort with an adaptive design using Bayesian logistic regression modeling with overdose control. The starting dose of subasumstat was based on Good Laboratory Practice animal toxicity studies and supported by the estimation of a minimum anticipated biologically effective level. A detailed description of dose-limiting toxicities (DLT) is presented in the Supplementary Methods.
The phase II dose-expansion portion enrolled patients to receive the recommended phase II dose (RP2D) determined in phase I, with each cohort assessed separately using an adaptive two-stage design for a single proportion (see Supplementary Methods). For stage 1, each cohort was analyzed when a prespecified number of patients were enrolled and had the potential to have at least one posttreatment scan [i.e., after the first disease assessment, 2 months from cycle 1 day 1 (C1D1)]. If the prespecified minimal response rate was not achieved in the first stage for a given cohort, that cohort would be closed to enrollment. […] The final analysis of the primary endpoints for each cohort would take place when all ongoing patients had the opportunity to complete the 6-month disease assessment. Across both phases, patients received subasumstat for up to 1 year or until confirmed disease progression, unacceptable toxicity, if any withdrawal criterion from the study was met, or if discontinuation of subasumstat occurred.
The occurrence of DLTs was assessed during cycle 1 (DLTs are described in the Supplementary Methods). Treatment-emergent adverse events (TEAE) were graded according to NCI Common Terminology Criteria for Adverse Events version 5.0, except for cytokine release syndrome (CRS), which was graded according to the American Society for Transplantation and Cellular Therapy Consensus Grading for CRS ([20]).
It was anticipated that approximately 70 DLT-evaluable patients would be enrolled for dose escalation. The safety analysis set included all patients who received at least one dose, even if incomplete, of subasumstat. […] The overall response rate (ORR) was defined as the proportion of patients who achieved complete response and partial response (PR) during the study. The disease control rate (DCR) was defined as the proportion of patients who achieved […] as per RECIST v1.1 for solid tumors or Lugano classification for lymphomas. […] Progression-free survival was summarized descriptively using the Kaplan–Meier method.

Compound: Cc1sc(C(=O)c2cncnc2N[C@@H]2C[C@H](COS(N)(=O)=O)[C@@H](O)C2)cc1[C@@H]1NCCc2ccc(Cl)cc21 [subasumstat]
- AESI (adverse event of special interest): 9 (10.7) n (%)
- AESI related to subasumstat: 9 (10.7) n (%)
- AESI: CRS: 9 (10.7) n (%)
- Grade ≥3 TEAE: Abdominal pain: 4 (4.8) n (%)
- Grade ≥3 TEAE: Acute kidney injury: 2 (2.4) n (%)
- Grade ≥3 TEAE: Anemia: 9 (10.7) n (%)
- Grade ≥3 TEAE: Aspartate aminotransferase increased: 2 (2.4) n (%)
- Grade ≥3 TEAE: Blood bilirubin increased: 2 (2.4) n (%)
- Grade ≥3 TEAE: Dyspnea: 4 (4.8) n (%)
- Grade ≥3 TEAE: Fatigue: 5 (6.0) n (%)
- Grade ≥3 TEAE: Hyperbilirubinemia: 0 n (%)
- Grade ≥3 TEAE: Hypertension: 1 (1.2) n (%)
- Grade ≥3 TEAE: Hypokalemia: 7 (8.3) n (%)
- Grade ≥3 TEAE: Hypomagnesemia: 2 (2.4) n (%)
- Grade ≥3 TEAE: Hypophosphatemia: 2 (2.4) n (%)
- Grade ≥3 TEAE: Lymphocyte count decreased: 5 (6.0) n (%)
- Grade ≥3 TEAE: Lymphopenia: 1 (1.2) n (%)
- Grade ≥3 TEAE: Muscular weakness: 0 n (%)
- Grade ≥3 TEAE: Nausea: 2 (2.4) n (%)
- Grade ≥3 TEAE: Neutropenia: 0 n (%)
- Grade ≥3 TEAE: Platelet count increased: 1 (1.2) n (%)
- Grade ≥3 TEAE: Pleural effusion: 2 (2.4) n (%)
- Grade ≥3 TEAE: Pneumonia: 1 (1.2) n (%)
- Grade ≥3 TEAE: Pneumonitis: 2 (2.4) n (%)
- Grade ≥3 TEAE: Pyrexia: 2 (2.4) n (%)
- Grade ≥3 TEAE: Small intestinal obstruction: 4 (4.8) n (%)
- Grade ≥3 TEAE: Thrombocytopenia: 1 (1.2) n (%)
- Grade ≥3 TEAE: Vomiting: 4 (4.8) n (%)
- Grade ≥3 TEAEs: 48 (57.1) n (%)
- Grade ≥3 TEAEs related to subasumstat: 18 (21.4) n (%)
- Grade ≥3 subasumstat-related TEAE: Anemia: 1 (1.2) n (%)
- Grade ≥3 subasumstat-related TEAE: Aspartate aminotransferase increased: 2 (2.4) n (%)
- Grade ≥3 subasumstat-related TEAE: Hypokalemia: 2 (2.4) n (%)
- Grade ≥3 subasumstat-related TEAE: Lymphocyte count decreased: 4 (4.8) n (%)
- Grade ≥3 subasumstat-related TEAE: Muscular weakness: 0 n (%)
- Grade ≥3 subasumstat-related TEAE: Neutropenia: 0 n (%)
- Grade ≥3 subasumstat-related TEAE: Platelet count increased: 1 (1.2) n (%)
- Grade ≥3 subasumstat-related TEAE: Pneumonitis: 2 (2.4) n (%)
- Grade ≥3 subasumstat-related TEAE: Thrombocytopenia: 1 (1.2) n (%)
- On-study deaths: 10 (11.9) n (%)
- Patients with at least one grade ≥3 TEAE: 48 (57.1) n (%)
- Patients with at least one grade ≥3 subasumstat-related TEAE: 18 (21.4) n (%)
- Serious adverse events: 37 (44.0) n (%)
- Serious adverse events related to subasumstat: 7 (8.3) n (%)
- Subasumstat-related TEAE: Anemia: 4 (4.8) n (%)
- Subasumstat-related TEAE: CRS: 9 (10.7) n (%)
- Subasumstat-related TEAE: Chills: 17 (20.2) n (%)
- Subasumstat-related TEAE: Decreased appetite: 10 (11.9) n (%)
- Subasumstat-related TEAE: Diarrhea: 15 (17.9) n (%)
- Subasumstat-related TEAE: Dyspnea: 4 (4.8) n (%)
- Subasumstat-related TEAE: Fatigue: 27 (32.1) n (%)
- Subasumstat-related TEAE: Headache: 21 (25.0) n (%)
- Subasumstat-related TEAE: Hypokalemia: 7 (8.3) n (%)
- Subasumstat-related TEAE: IRR: 5 (6.0) n (%)
- Subasumstat-related TEAE: Myalgia: 6 (7.1) n (%)
- Subasumstat-related TEAE: Nausea: 29 (34.5) n (%)
- Subasumstat-related TEAE: Pyrexia: 23 (27.4) n (%)
- Subasumstat-related TEAE: Vomiting: 13 (15.5) n (%)
- TEAE: Abdominal distension: 11 (13.1) n (%)
- TEAE: Abdominal pain: 17 (20.2) n (%)
- TEAE: Anemia: 12 (14.3) n (%)
- TEAE: Arthralgia: 12 (14.3) n (%)
- TEAE: Back pain: 12 (14.3) n (%)
- TEAE: CRS: 9 (10.7) n (%)
- TEAE: Chills: 20 (23.8) n (%)
- TEAE: Constipation: 14 (16.7) n (%)
- TEAE: Decreased appetite: 26 (31.0) n (%)
- TEAE: Dehydration: 10 (11.9) n (%)
- TEAE: Diarrhea: 29 (34.5) n (%)
